# System: S. pneumoniae D39
# Format: cell-based, Streptococcus pneumoniae
# Description: This was done to directly compare possible changes in intracellular concentrations of polyamines and capsule precursors as a result of DFMO inhibition of polyamine synthesis to the earlier report where polyamine synthesis was affected via gene deletion in TIGR4[24]. […] Cells were harvested (5000×g, 10 min, 4 °C), re-suspended in extraction solvent [40% acetonitrile, 40% methanol, 20% water with formic acid (0.1 M)] and transferred to bead-beater tubes (MP Biomedicals, Irvine, CA, USA). Cells were lysed using a FastPrep-24™ Classic (45 s, 6.5 m/s, RT, 3 times) (MP Biomedicals, Irvine, CA, USA) and incubated on ice (5 min after each spin). TIGR4 lysates were clarified (6000×g, 5 min, 4 °C), and metabolite differentiation and detection were performed using published protocols[28],[29]. Liquid chromatography-mass spectrometry-based (LC–MS) metabolomic analysis was performed with an Agilent Accurate Mass 6230 TOF coupled with an Agilent 1290 LC system using a Cogent Diamond Hydride Type C column. Briefly, the mobile phase consisted of the following: solvent A (ddH2O with 0.2% formic acid) and solvent B (acetonitrile with 0.2% formic acid). The gradient used was as follows: 0–2 min, 85% B; 3–5 min, 80% B; 6–7 min, 75% B; 8–9 min, 70% B; 10–11.1 min, 50% B; 11.1–14 min 20% B; 14.1–24 min 5% B followed by a 10 min re-equilibration period at 85% B at a flow rate of 0.4 mL/min. Mass axis dynamics was calibrated by continuous infusion of a reference mass solution using an isocratic pump. […] Metabolite identities were searched for using a mass tolerance of < 0.005 Da. Metabolite concentrations from the 5 biological replicates were normalized to biomass based on measurement of residual peptide content in individual samples using the Pierce BCA Protein Assay kit (Thermo Fisher Scientific, Waltham, MA, USA). Data were analyzed using Profinder B.07.00 software (Agilent Technologies, Santa Clara, CA, USA). Extracted molecular features detected in the mass analyzer were identified using accurate mass values and used to generate empirical molecular formulae using an in-house metabolite database that included known intermediates, amino acid precursors and polyamines and their derivatives. Statistical analysis of metabolite peak intensity data was performed using MetaboAnalyst 4.0[30]. Data were normalized (quantile), log transformed and significant fold change between WT and DFMO-treated WT were identified by Student’s t-test (p ≤ 0.05).
# To measure the polyamines, glucose and glucuronic acid in D39, TSQ Quantum Access triple-quadrupole tandem mass spectrometer (Thermo Fisher Scientific, Waltham, MA, USA) equipped with acquity UPLC system (Waters, Milford, MA, USA) was operated in positive and negative ion mode. Chromatographic separation was performed on Cogent Diamond Hydride HPLC column (2.1 mm × 150 mm, 4 μm) coupled with Congent Diamond Hydride HPLC Guard column (2.0 mm × 10 mm, 4 μm). The flow rate was 500 µL/min, the sample injection volume was 10 µL, and the column temperature was at 40 °C. The mobile phase A was composed of water with 0.1% v/v formic acid, and mobile phase B was composed of acetonitrile with 0.1% v/v formic acid. The gradient condition was 0 min (5% A, 95% B), 1 min (5% A, 95% B), 4.0 min (30% A, 70% B), 6 min (95% A, 5% B), 6.5 min (95% A, 5% B), 7 min (5% A, 95% B), and 10 min (5% A, 95%B). The total run time was 10 min, and the column eluate directed into the mass spectrometer using an electrospray ionization interface in positive and negative modes. The MS conditions were set as follow: spray voltage = 3500 V, vaporizer temperature = 350 °C, sheath gas = 25 psi, auxiliary gas = 10 psi, and capillary temperature = 350 °C. Samples were run in selected reaction monitoring (SRM) mode, and the optimized MS/MS parameters for ionization are given in Table 1.
# [1] = DFMO 34 mM, agmatine 20 mM, AMXT 1501 7.4 µM, p-value in bracket omitted
structure (smiles),measurement,setting,value
"NCCC[C@](N)(C(=O)O)C(F)F [DFMO, α-difluoromethylornithine]",intracellular glucose (peak intensity),"1/8 MIC DFMO (34 mM), 1/2 MIC AMXT 1501 (7.4 µM)",significantly reduced
same,intracellular glucuronic acid (peak intensity),"1/8 MIC DFMO (34 mM), 1/2 MIC AMXT 1501 (7.4 µM), separately or in combination",significantly depleted
same,"Agmatine, fold change treated D39 /D39",[1],-1.3 (2.13E05)
same,"Cadaverine, fold change treated D39 /D39",[1],-0.8 (0.004)
same,"Lysine, fold change treated D39 /D39",[1],-0.2 (0.018)
same,"N-acetyl spermidine, fold change treated D39 /D39",[1],-0.6 (0.094)
same,"N-carbamoyl putrescine, fold change treated D39 /D39",[1],-1.6 (0.026)
same,"Ornithine, fold change treated D39 /D39",[1],0.4 (0.004)
same,"Putrescine, fold change treated D39 /D39",[1],-0.4 (0.015)
same,"Spermidine, fold change treated D39 /D39",[1],0.3 (0.309)
same,"Spermine, fold change treated D39 /D39",[1],-0.7 (0.002)
